The test system of assay [1] is aortic valve interstitial cells. The experiment in a line: BMP2-treated aortic valve interstitial cells with or without Ataciguat for 24 hours (pVASP239, Sp7). The assay is classed as cell-based. The note with it: in vitro. On the procedure: Overexpression of DDAH1 reduces endogenous inhibitors of NOS, increases NO production, and increases sGC signaling, ultimately resulting in slower progression of CAVS.
To determine whether induction of sGC signaling reduced osteogenic signaling in vitro, aortic valve interstitial cells were treated with BMP2 in the presence or absence of Ataciguat (HMR1766, 5-Chloro-2-[[(5-chloro-2-thienyl)sulfonyl]amino]-N-[4-(4-morpholinylsulfonyl)phenyl]benzamide) for 24 hours.

Assay [2] has the same test system. The experiment in a line: Western blotting of BMP, TGFβ and sGC signaling in valve interstitial cells treated with BMP2, TGFβ1 or vehicle, with or without Ataciguat, for 18 hours. The format is cell-based, human and mouse. Particulars: Ataciguat 1 μmol, 37° C. The protocol:
FIG. 4 is a graph plotting p-VASP^239 levels detected in aortic valve interstitial cells treated with BMP2 (100 ng/mL), TGFβ1 (10 ng/mL), or neither (control; CTRL) in the presence or absence of Ataciguat (1 μmol) for 18 hours at 37° C.
FIG. 5 is a graph plotting p-Smad1/5/8 levels detected in aortic valve interstitial cells treated with BMP2 (100 ng/mL), TGFβ1 (10 ng/mL), or neither (control; CTRL) in the presence or absence of Ataciguat (1 μmol) for 18 hours at 37° C.
FIG. 6 is a graph plotting Sp7 levels detected in aortic valve interstitial cells treated with BMP2 […], or neither (control; CTRL) in the presence or absence of Ataciguat (1 μmol) for 18 hours at 37° C.
FIG. 7 is a graph plotting p-Smad2 levels detected in aortic valve interstitial cells treated with BMP2 […], or neither (control; CTRL) in the presence or absence of Ataciguat (1 μmol) for 18 hours at 37° C.
Additional experiments were performed to confirm that Ataciguat activates sGC signaling, attenuates BMP2 signaling, attenuates BMP2 target induction, and attenuates fibrogenic signaling in valve interstitial cells. In brief, cells were maintained in Dulbecco's Modified Eagle's Medium (DMEM) with 20% fetal bovine serum (FBS) and expanded to confluence in 6 well plates in a standard 5% CO2 incubator at 37° C. Cells were then treated with BMP2 (100 ng/mL), TGFβ1 (10 ng/mL), or vehicle (phosphate buffered saline) in the absence or presence of Ataciguat (1 μmol) for 18 hours. Cells were lysed using standard protein lysis buffer containing protease and phosphatase inhibitors, and Western blotting was performed to evaluate changes in protein levels of BMP, TGFβ, and sGC signaling.
For orientation: Immunoblotting shows a protein as a band on a membrane.

“Also recorded” adds a separate entry of the source.

For the compound `O=C(Nc1ccc(S(=O)(=O)N2CCOCC2)cc1)c1cc(Cl)ccc1NS(=O)(=O)c1ccc(Cl)s1` [Ataciguat, 5-Chloro-2-[[(5-chloro-2-thienyl)sulfonyl]amino]-N-[4-(4-morpholinylsulfonyl)phenyl]benzamide], the “sGC signaling (indicated by pVASP239 levels)” value in assay [1] (FIG. 2A) is on record as “activated sGC signaling”. Moreover, the “osteogenic signaling (BMP2-induced Sp7 expression)” value in assay [1] (FIG. 2B) was “profoundly suppressed osteogenic signaling”. In addition, the “sGC signaling (p-VASP239 levels)” value in assay [2] (BMP2 100 ng/mL, TGFβ1 10 ng/mL or control, FIG. 4, replicated in human (HAV-001, HAV-002, HAV-003) and mouse (MAV1, MAV2, MAV4) cell lines) is recorded as “effectively activated sGC signaling”. Further, the “BMP2 signaling (p-Smad1/5/8 levels)” value in assay [2] (BMP2 100 ng/mL, TGFβ1 10 ng/mL or control, FIG. 5, replicated in human and mouse cell lines) is “attenuated canonical BMP2 signaling”. For the same compound, the “BMP2 target induction (Sp7 levels)” value in assay [2] (BMP2, TGFβ1 or control, FIG. 6, replicated in human and mouse cell lines) is on record as “attenuated BMP target induction; also recorded: attenuated BMP2 target induction”. Further, the “fibrogenic signaling (p-Smad2 levels)” value in assay [2] (BMP2, TGFβ1 or control, FIG. 7, replicated in human and mouse cell lines) is “partially attenuated fibrogenic signaling”.

Values taken from patent US11197871B2, “Methods and materials for treating calcific aortic valve stenosis” (Mayo Foundation for Medical Education and Research, priority 2012, dated 2021).
